Source: patent publication US6703399B2, “Halo-alkyl esters of camptothecins and methods of treating cancer using these compounds” (priority 2002, dated 2004)

Legend:
[1] = Plasma levels of 9NC after i.s. administration, share in closed lactone form; type: in vivo; settings: species not given, mice from b8 and b10
[2] = Plasma levels of 9NC after oral administration to Phase I clinical trial patients, share in closed lactone form; type: in vivo, humans; settings: on average
[3] = tested on: human tumor xenografts; test: Antitumor activity against human tumor xenografts in mice; type: in vivo
Description: (§1) Clearly, there is a pressing need for a modification which will slow and delay the lactone ring opening upon its entrance into the blood circulation.

[4] = tested on: human tumor xenografts; settings: in mice; cited from earlier work
[5] = tested on: tumors; test: Clinical responses in Phase I patients; type: in vivo; settings: in humans
Description: as §1

[6] = water-soluble sodium carboxylate salt; cited from earlier work
[7] = Plasma CPT after intrastomach administration in mice, closed lactone share of AUC; type: in vivo
[8] = Pharmacokinetics of CPT in human plasma, lactone half-life; type: in vitro ADME
[9] = Plasma CPT after oral administration in humans, closed lactone share of AUC; type: in vivo

## CC[C@@]1(O)C(=O)OCc2c1cc1n(c2=O)Cc2cc3c([N+](=O)[O-])cccc3nc2-1 [Example 9NC, 9-nitrocamptothecin]
[1]
  share of drug present in the plasma in the closed lactone form: 57%
[2]
  share of drug present in plasma in the closed lactone form: ~3%
[3]
  complete tumor regressions: 32/32
[4]
  potency relative to CPT against human tumor xenografts: 2-3 times
[5]
  complete tumor regressions: 2/32

## CC[C@@](O)(C(=O)[O-])c1cc2n(c(=O)c1CO)Cc1cc3ccccc3nc1-2.[Na+] [sodium carboxylate salt]
[6]
  anticancer activity in clinical evaluation: devoid of anticancer activity
  toxicity in clinical evaluation: severe toxicity

## 20(S)-camptothecin [CPT]
[7]
  closed lactone form, share of the area under the curve: approximately 54%
[8]
  half-life time of the drug with lactone intact: 30 min
[9]
  closed lactone ring form, share of the area under the curve: about 0.4%
